Experimental data: patent US20080194653A1, “Therapeutic Agent For Solid Tumor” (KYOWA HAKKO KOGYO CO., LTD., priority 2005, published 2008)
Structures can show the parent of a compound that is named as a salt.

How the values were obtained:
[1] = target: T1, recombinant human Eg5 motor domain protein (Homo sapiens, UniProt P52732); experiment: Eg5 enzyme inhibition test (ATPase activity); assay type: biochemical; settings: for IC50: 30° C., 30 minutes, absorbance at 360 nm, read-out: Inhibition ratios (IC50) on the ATPase activity of Eg5
T1 construct: A plasmid expressing the motor domain of human Eg5 was constructed; made in house; host or cells: Escherichia coli BL21 (DE3)
T1 sequence (P52732 18-359 limits assumed): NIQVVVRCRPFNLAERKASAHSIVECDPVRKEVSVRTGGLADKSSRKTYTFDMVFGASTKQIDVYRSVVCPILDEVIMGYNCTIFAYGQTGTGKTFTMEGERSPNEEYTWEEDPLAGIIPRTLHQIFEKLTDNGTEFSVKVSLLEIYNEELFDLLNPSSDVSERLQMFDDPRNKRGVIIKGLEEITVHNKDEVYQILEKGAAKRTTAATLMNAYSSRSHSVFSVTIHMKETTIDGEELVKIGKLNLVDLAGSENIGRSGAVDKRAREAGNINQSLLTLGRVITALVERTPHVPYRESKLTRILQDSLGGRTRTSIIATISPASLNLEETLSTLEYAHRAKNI
Method: A recombinant human Eg5 motor domain protein was prepared by referring to the literature [Biochemistry, Vol. 35, p. […] A plasmid expressing the motor domain of human Eg5 was constructed, and transformed into Escherichia coli BL21 (DE3). The transformant was cultured at 25° C., and when the OD600 reached 0.74, isopropyl-β-D-thiogalactoside was added at a final concentration of 0.5 mmol/L. The transformant was further cultured for 4 hours, and then the culture medium was centrifuged to collect the cells. The cells were suspended in a buffer and ultrasonicated, and then the sonicated solution was centrifuged to recover the supernatant. The supernatant was purified by cation exchange column chromatography to obtain a partially purified sample. Furthermore, the partially purified sample was purified by gel filtration column chromatography to obtain a finally purified sample.
Measurement of the ATPase activity of Eg5 was carried out by referring to the literatures [EMBO Journal, Vol. 13, p. […] Solution A was dispensed into each well of a 96-well plate as 45 μL portions. Solution B was used to serially dilute a test compound. The diluted test compound solutions in a volume of 30 μL were mixed with Solution A added beforehand in each well of the 96-well plate to start the enzymatic reaction. The enzymatic reaction was performed at 30° C. for 30 minutes. […] The relative activity was calculated to calculate IC50 value.

[2] = test system: human breast cancer MDA-MB-468 cells; experiment: Cell growth inhibition test against breast cancer cells (XTT); assay type: cell-based; settings: read-out: GI50 value (concentration of 50% growth inhibition)
Method: (§1) A549 cells (1000 cells/well), SK-OV-3 cells (2000 cells/well), or HCT 116 cells (1000 cells/well) were seeded in each well of 96-well plates (Nunc, catalog No. 167008), and cultured overnight. Test compounds diluted stepwise were added, and the cells were further cultured for 72 hours (final volume: 100 μL/well). Fifty μL XTT labeling mixture of Cell Proliferation Kit II (XTT) (Roche Diagnostics, catalog No. 1465015) was added to each well, and the plates were incubated at 37° C. After 1 to 3 hours, absorbance at 490 nm (reference wavelength: 655 nm) was measured with a plate reader (Molecular Device, SpectraMax 340PC^384). Growth ratios of the cells in the wells treated with the test compounds were calculated based on the growth ratio of the cells in the control well treated with solvent (dimethyl sulfoxide (DMSO)) for 72 hours, which was defined as 100%.
(§2) As cancer cell lines, human pancreatic cancer MIA PaCa-2 cells (JCRB No. 0070), human cervical cancer HeLa cells (ATCC No. CCL-2), human breast cancer MDA-MB-468 cells (ATCC No. HTB-132), human prostate cancer DU 145 cells (ATCC No. HTB-81), human skin cancer SK-MEL-28 cells (ATCC No. HTB-72), human head and neck cancer KB cells (JCRB No. 9027), human renal cancer 786-0 cells (ATCC No. CRL-1932), and human liver cancer Hep G2 cells (ATCC No. HB-8065) were used. The cells were cultured at 37° C. in a 5% carbon dioxide atmosphere (except for the human breast cancer MDA-MB-468 cells, which were cultured under the condition at 37° C.) by using the mediums mentioned below, respectively.
(§3) In the same manner as that in Test Example 1, the cells were seeded (500 to 4000 cells/well, respectively) in each well of 96-well plates (Nunc, catalog No. 167008), and growth ratios of the cells treated with test compounds were calculated. The measurement of absorbance was performed at 1.5 to 3 hours after the addition of the XTT labeling mixture.

[3] = test system: human liver cancer Hep G2 cells; experiment: Cell growth inhibition test against liver cancer cells (XTT); assay type: cell-based; settings: HepG2, read-out: GI50 value (concentration of 50% growth inhibition)
Method: as §1, §2, §3

[4] = test system: human colon cancer HCT 116 cells; experiment: Cell growth inhibition test against colon cancer cells (XTT); assay type: cell-based; settings: read-out: GI50 value (concentration of 50% growth inhibition), 72 hours
Method: (§4) As cancer cell lines, human lung cancer A549 cells (ATCC No. CCL-185), human ovarian cancer SK-OV-3 cells (ATCC No. HTB-77), and human colon cancer HCT 116 cells (ATCC No. CCL-247) were used. For the culture of A549 cells, Nutrient Mixture F-12K medium (Invitrogen, catalog No. 21127-022) containing 10% fetal bovine serum (Invitrogen, catalog No. 10099-141), 100 units/mL penicillin (Invitrogen, catalog No. 15140-122), and 100 μg/mL streptomycin (Invitrogen, catalog No. 15140-122) was used. For the culture of SK-OV-3 cells and HCT 116 cells, McCoy's 5A medium (Invitrogen, catalog No. 16600-082) containing 10% fetal bovine serum (Invitrogen, catalog No. 10099-141), 100 units/mL penicillin (Invitrogen, catalog No. 15140-122), and 100 μg/mL streptomycin (Invitrogen, catalog No. 15140-122) was used. The cells were cultured at 37° C. in a 5% carbon dioxide atmosphere.
as §1

[5] = test system: human prostate cancer DU 145 cells; experiment: Cell growth inhibition test against prostate cancer cells (XTT); assay type: cell-based; settings: read-out: GI50 value (concentration of 50% growth inhibition)
Method: as §1, §2, §3

[6] = test system: human renal cancer 786-0 cells; experiment: Cell growth inhibition test against renal cancer cells (XTT); assay type: cell-based; settings: read-out: GI50 value (concentration of 50% growth inhibition)
Method: as §1, §2, §3

[7] = test system: human pancreatic cancer MIA PaCa-2 cells; experiment: Cell growth inhibition test against pancreatic cancer cells (XTT); assay type: cell-based; settings: read-out: GI50 value (concentration of 50% growth inhibition)
Method: as §1, §2, §3

[8] = test system: human cervical cancer HeLa cells; experiment: Cell growth inhibition test against cervical cancer cells (XTT); assay type: cell-based; settings: read-out: GI50 value (concentration of 50% growth inhibition)
Method: as §1, §2, §3

[9] = test system: human skin cancer SK-MEL-28 cells; experiment: Cell growth inhibition test against skin cancer cells (XTT); assay type: cell-based; settings: read-out: GI50 value (concentration of 50% growth inhibition)
Method: as §1, §2, §3

[10] = test system: human lung cancer A549 cells; experiment: Cell growth inhibition test against lung cancer cells (XTT); assay type: cell-based; settings: read-out: GI50 value (concentration of 50% growth inhibition), 72 hours
Method: as §4, §1

[11] = test system: human ovarian cancer SK-OV-3 cells; experiment: Cell growth inhibition test against ovarian cancer cells (XTT); assay type: cell-based; settings: read-out: GI50 value (concentration of 50% growth inhibition), 72 hours
Method: as §4, §1

[12] = test system: human head and neck cancer KB cells; experiment: Cell growth inhibition test against head and neck cancer cells (XTT); assay type: cell-based; settings: read-out: GI50 value (concentration of 50% growth inhibition)
Method: as §1, §2, §3

melting point [°C] | GI50 [2] [µM] | GI50 [3] [µM] | GI50 [4] [µM] | GI50 [5] [µM] | GI50 [6] [µM] | GI50 [7] [µM] | GI50 [8] [µM] | GI50 [9] [µM] | GI50 [10] [µM] | GI50 [11] [µM] | GI50 [12] [µM] | IC50 [1] [µM] | Compound | Inhibition of the ATPase activity of Eg5 (in words) [1]
– | < 10 | < 10 | < 0.1 | < 10 | < 10 | < 10 | < 10 | < 10 | < 10 | < 10 | < 10 | < 0.1 | CCNCCS(=O)(=O)NCCC1(c2ccccc2)SC(NC(=O)C(C)(C)C)=NN1C(=O)C(C)(C)C (single isomer, unassigned) [Compound i, N-{4-(2,2-Dimethylpropionyl)-5-[2-(2-ethylaminoethanesulfonylamino)ethyl]-5-phenyl-4,5-dihydro-1,3,4-thiadiazol-2-yl}-2,2-dimethylpropanamide] | inhibited the ATPase activity of Eg5 in a concentration-dependent manner
– | < 10 | – | < 0.1 | < 10 | < 10 | < 10 | < 10 | < 10 | < 10 | < 10 | < 10 | < 0.1 | CCC(=O)N1N=C(NC(=O)C(C)(C)C)SC1(CCNS(C)(=O)=O)c1ccccc1 (single isomer, unassigned; (-)) [Compound b, (−)-N-[5-(2-Methanesulfonylaminoethyl)-5-phenyl-4-propionyl-4,5-dihydro-1,3,4-thiadiazol-2-yl]-2,2-dimethylpropanamide] | inhibited the ATPase activity of Eg5 in a concentration-dependent manner
107 to 110 | – | – | – | – | – | – | – | – | – | – | – | – | CC(C)(C)C(=O)N1N=C(N2CCCC2=O)SC1(CCNS(C)(=O)=O)c1ccccc1 (single isomer, unassigned; (-)) [Compound c, (−)-N-{2-[3-(2,2-Dimethylpropionyl)-5-(2-oxopyrrolidin-1-yl)-2-phenyl-2,3-dihydro-1,3,4-thiadiazol-2-yl]ethyl}methanesulfonamide] | –
187 to 190 | – | – | – | – | – | – | – | – | – | – | – | – | CC(=O)N1N=C(NC(=O)C(C)(C)C)SC1(CCNS(C)(=O)=O)c1ccccc1 (single isomer, unassigned; (-)) [Compound f, (−)-N-[4-Acetyl-5-(2-methanesulfonylaminoethyl)-5-phenyl-4,5-dihydro-1,3,4-thiadiazol-2-yl]-2,2-dimethylpropanamide] | –
169 to 171 | < 10 | – | < 0.1 | < 10 | < 10 | < 10 | < 10 | < 10 | < 10 | < 10 | < 10 | < 0.1 | CC(=O)N1N=C(N2CCCCC2=O)SC1(CCNS(C)(=O)=O)c1ccccc1 (single isomer, unassigned; (-)) [Compound h, (−)-N-{2-[3-Acetyl-5-(2-oxopiperidino)-2-phenyl-2,3-dihydro-1,3,4-thiadiazol-2-yl]ethyl}methanesulfonamide] | inhibited the ATPase activity of Eg5 in a concentration-dependent manner

Second part, the molecule before the results:

Compound | melting point [°C] | GI50 [2] [µM] | GI50 [3] [µM] | GI50 [4] [µM] | GI50 [5] [µM] | GI50 [6] [µM] | GI50 [7] [µM] | GI50 [8] [µM] | GI50 [9] [µM] | GI50 [10] [µM] | GI50 [11] [µM] | GI50 [12] [µM] | IC50 [1] [µM] | Inhibition of the ATPase activity of Eg5 (in words) [1]
CC(C)(C)C(=O)NC1=NN(C(=O)C(C)(C)C)C(CN)(c2ccccc2)S1 (stereo not shown) (as salt: hydrochloride) [Compound j, N-[5-Aminomethyl-4-(2,2-dimethylpropionyl)-5-phenyl-4,5-dihydro-1,3,4-thiadiazol-2-yl]-2,2-dimethylpropanamide] | 175 to 182 | – | – | – | – | – | – | – | – | – | – | – | – | –
CCNCCS(=O)(=O)NCCC1(c2ccccc2)SC(NC(=O)C(C)(C)C)=NN1C(=O)C(C)(C)C (racemic) [Compound 14, N-{4-(2,2-Dimethylpropionyl)-5-[2-(2-ethylaminoethanesulfonylamino)ethyl]-5-phenyl-4,5-dihydro-1,3,4-thiadiazol-2-yl}-2,2-dimethylpropanamide] | – | – | – | – | – | – | – | – | – | – | – | – | – | inhibited the ATPase activity of Eg5 in a concentration-dependent manner
CCNCCS(=O)(=O)NCC1(c2ccccc2)SC(NC(=O)C(C)(C)C)=NN1C(=O)C(C)(C)C (single isomer, unassigned; (-)) [Compound l, (−)-N-[4-(2,2-Dimethylpropionyl)-5-(2-ethylaminoethanesulfonylamino-methyl)-5-phenyl-4,5-dihydro-1,3,4-thiadiazol-2-yl]-2,2-dimethylpropanamide] | – | – | < 10 | < 0.1 | < 10 | < 10 | < 10 | < 10 | < 10 | < 10 | < 10 | < 10 | < 0.1 | inhibited the ATPase activity of Eg5 in a concentration-dependent manner
CC(=O)N1N=C(N2CCCC2=O)SC1(CCNS(C)(=O)=O)c1ccccc1 (stereo not shown) [Compound g, N-{2-[3-Acetyl-5-(2-oxopyrrolidin-1-yl)-2-phenyl-2,3-dihydro-1,3,4-thiadiazol-2-yl]ethyl}methanesulfonamide] | 137 to 140 | – | – | – | – | – | – | – | – | – | – | – | – | –
CC(C)(C)C(=O)NC1=NN(C(=O)C(C)(C)C)C(CN)(c2ccccc2)S1 (stereo not shown) [Compound j, N-[5-Aminomethyl-4-(2,2-dimethylpropionyl)-5-phenyl-4,5-dihydro-1,3,4-thiadiazol-2-yl]-2,2-dimethylpropanamide] | – | – | – | < 0.1 | – | – | – | – | – | < 10 | < 10 | – | – | –
